Data from publication PMC2792609, “Effect of methomyl on hepatic mixed function oxidases in rats” (Indian Journal of Pharmacology, 2008).
Read-outs that look alike come from different tables or passages of the source.

Experiments:
[1] = tested on: Male Wistar rats; settings: 4 mg/kg; cited from earlier work
[2] = tested on: Cytochrome c reductase; assay: Hepatic microsomal cytochrome c reductase activity; assay type: in vivo, rat
Method: (§1) Adult male rats (weighing 200-230 g) were divided into four groups of six animals each. Group 1 received an equivalent amount of saline and served as control. Animals from group 2, 3, and 4 were given methomyl 1, 2, and 4 mg/kg body weight i.p. respectively, between 8: 00 a.m. and 9:00 a.m., for three consecutive days. In the second set of experiments, adult male rats were divided into four groups. Animals from group 2, 3, and 4 were injected with 4 mg/kg body weight methomyl for one, three, and five successive days. The volume injected into the rats of body weight 200 g was 1 ml. In another experiment, adult female rats and old male rats (weighing 350-450 g, 8 months old) were divided into two groups of six animals each. Group 2 of each category received methomyl (4 mg/kg body weight, i.p., for three successive days), and group 1 of each category received an equivalent amount of saline and served as the control group.
(§2) The rats were sacrificed by cervical dislocation, 24 hours after the last dose. Their livers were perfused in situ with ice cold 1.15% KCl containing 0.05 mM EDTA, rapidly excised, blotted dry, weighed, minced and homogenized with two volumes of ice cold 0.25 M sucrose solution, in a Potter-Elvehjem type homogenizer. The homogenate was centrifuged at 10,000 × g for 10 min, in a refrigerated centrifuge (REMI C-24). The microsomes were isolated by the procedure described by of Cinti et al.[4] The microsomal pellet was suspended in phosphate buffer (0.1 M, pH 7.4) and the suspension was used for the microsomal enzyme assays. Microsomal protein content was measured by the Biuret method, using bovine serum albumin as the standard.[5]
(§3) The microsomal electron transport components (cytochrome P450 and cytochrome b5) were determined using Hitachi UV-Visible double beam recording spectrophotometer, by the procedure of Omura and Sato.[67] Cytochrome c reductase activity was determined using the method recommended by Masters et al.[8] Aminopyrine N-demethylase activity was assayed according to the procedure described by Schenkman et al.[9] Formaldehyde liberated during N-demethylation was estimated by the procedure described by Nash.[10] Aniline hydroxylase assay was performed using the procedure reported by Govindwar and Dalvi.[11]

[3] = classification; cited from earlier work
[4] = tested on: aspartate aminotransferase (SGOT); assay: Serum aspartate aminotransferase (SGOT) activity; assay type: in vivo, rat; settings: female rats; for SGOT: for 3 days
[5] = tested on: aspartate aminotransferase (SGOT); assay: Serum aspartate aminotransferase (SGOT) activity; assay type: in vivo, rat; settings: for Increased activity of aspartate aminotransferase: 3 days
Method: (§4) Adult male rats (weighing 200-230 g) were divided into four groups of six animals each. Group 1 received an equivalent amount of saline and served as control. Animals from group 2, 3, and 4 were given methomyl 1, 2, and 4 mg/kg body weight i.p. respectively, between 8: 00 a.m. and 9:00 a.m., for three consecutive days. In the second set of experiments, adult male rats were divided into four groups. Animals from group 2, 3, and 4 were injected with 4 mg/kg body weight methomyl for one, three, and five successive days. The volume injected into the rats of body weight 200 g was 1 ml. […]
(§5) Alanine aminotransferase and aspartate aminotransferase activity was measured using the Reitman and Frankel[12] method. Alkaline phosphatase activity was measured using Span diagnostic kits.[13] Cholinesterase activity was measured using the kinetic test method of Knedel et al.[14]

[6] = tested on: old male rats; settings: cited from earlier work
[7] = Serum total protein; assay type: in vivo, rat; settings: for decrease in total protein content: 3 days
Method: as §1

[8] = tested on: microsomal protein; assay type: in vivo, rat; settings: for decrease in hepatic microsomal protein content: 3 days, vs control
Method: as §1, §2

[9] = tested on: cytochrome b5; assay: Hepatic microsomal cytochrome b5 level; assay type: in vivo, rat
Method: as §1, §2, §3

[10] = tested on: alanine aminotransferase (SGPT); assay: Serum alanine aminotransferase (SGPT) activity; assay type: in vivo, rat; settings: for Increased activity of alanine aminotransferase: 3 days
Method: as §4, §5

[11] = tested on: mixed function oxidases; settings: quails; cited from earlier work
[12] = tested on: red cell ChE; settings: methomyl aerosol, male rats, repeated inhalation; cited from earlier work
[13] = adult female rat, 4 mg/kg i.p., three days, vs control
[14] = adult female rats, 4 mg/kg body weight, i.p., three days
[15] = adult male rats, 1 mg/kg i.p., for 3 days
[16] = adult male rats, 2 mg/kg i.p., for 3 days
[17] = adult male rats, 4 mg/kg i.p., for 3 days
[18] = adult male rats, 4 mg/kg i.p., one, three and five days
[19] = adult rats, 4 mg/kg i.p., 1 day of treatment
[20] = adult rats, 4 mg/kg i.p., 3 days of treatment
[21] = adult rats, 4 mg/kg i.p., 5 days of treatment
[22] = old male rat, 4 mg/kg i.p., three days, vs control
[23] = old male rats, 4 mg/kg body weight, i.p., three days
[24] = female rats, 4 mg/kg body weight i.p., for 3 days
[25] = male rats, 1 mg/kg body weight i.p., for three days
[26] = male rats, 2 mg/kg body weight i.p., for three days
[27] = male rats, 4 mg/kg body weight i.p., for three days

## CNC(=O)ON=C(C)SC [methomyl, S-methyl-N-(methyl carbomyl)-thioacetimidate]
[1]
  duration of maximum severity: about 30 min
  time to development of signs of toxicity: ≤ 2 min
  time to maximum severity (muscle fasciculation and convulsions): 5 to 10 min
  time until free from obvious toxicity: ≤ 90 min
[2]; [13]
  decrease in the activity of cytochrome c reductase: 42%
[2]; [14]
  Cytochrome c reductase: 23.07 nmole of cytochrome c reduced/min/mg microsomal protein
[2]; [15]
  Cytochrome c reductase: 35.73 nmole of cytochrome c reduced/min/mg microsomal protein
[2]; [16]
  Cytochrome c reductase: 32.80 nmole of cytochrome c reduced/min/mg microsomal protein
[2]; adult male rats, 4 mg/kg i.p., 3 days, vs control
  increase in cytochrome c reductase activity: 14%
[2]; [17]
  Cytochrome c reductase: 36.93 nmole of cytochrome c reduced/min/mg microsomal protein
[2]; [18]
  change in the activity of cytochrome c reductase: No significant change
[2]; [19]
  Cytochrome c reductase: 31.3 nmole of cytochrome c reduced/min/mg microsomal protein
[2]; [20]
  Cytochrome c reductase: 26.7 nmole of cytochrome c reduced/min/mg microsomal protein
[2]; [21]
  Cytochrome c reductase: 24.2 nmole of cytochrome c reduced/min/mg microsomal protein
[2]; [22]
  decrease in cytochrome c reductase: 7%
[2]; [23]
  Cytochrome c reductase: 33.30 nmole of cytochrome c reduced/min/mg microsomal protein
[3]
  pesticide toxicity category: category-1
[4]; 1 mg/kg body weight i.p.
  SGOT: 43.5 u/l
[4]; 2 mg/kg body weight i.p.
  SGOT: 46.6 u/l
[4]; 2 mg/kg i.p., 3 days
  Increased activity of aspartate aminotransferase: 26%
[5]; [24]
  SGOT: 51.0 u/l
[5]; female rats, 4 mg/kg i.p.
  Increased activity of aspartate aminotransferase: 39%
[5]; [25]
  SGOT: 35.7 u/l
[5]; [26]
  SGOT: 37.9 u/l
[5]; male rats, 2 mg/kg i.p.
  Increased activity of aspartate aminotransferase: 9%
[5]; [27]
  SGOT: 40.9 u/l
[5]; male rats, 4 mg/kg i.p.
  Increased activity of aspartate aminotransferase: 8%
[6]
  hemoglobin content, hematocrit value, erythrocyte, and leucocyte count: Decreased
[7]; [24]
  Serum total protein: 1.70 g/dL
[7]; female rats, 4 mg/kg i.p.
  decrease in total protein content: 23%
[7]; [25]
  Serum total protein: 2.02 g/dL
[7]; male rats, 1 mg/kg i.p.
  decrease in total protein content: 13%
[7]; [26]
  Serum total protein: 1.80 g/dL
[7]; male rats, 2 mg/kg i.p.
  decrease in total protein content: 22%
[7]; [27]
  Serum total protein: 1.60 g/dL
[7]; male rats, 4 mg/kg i.p.
  decrease in total protein content: 30%
[8]; [14]
  Microsomal protein: 10.90 mg/g liver
[8]; adult male rats, 1 mg/kg i.p.
  decrease in hepatic microsomal protein content: 28%
[8]; [15]
  Microsomal protein: 13.53 mg/g liver
[8]; adult male rats, 2 mg/kg i.p.
  decrease in hepatic microsomal protein content: 31%
[8]; [16]
  Microsomal protein: 12.83 mg/g liver
[8]; adult male rats, 4 mg/kg i.p.
  decrease in hepatic microsomal protein content: 19%
[8]; [17]
  Microsomal protein: 15.10 mg/g liver
[8]; [18]
  change in microsomal protein: No significant change
[8]; [19]
  Microsomal protein: 15.77 mg/g liver
[8]; [20]
  Microsomal protein: 16.00 mg/g liver
[8]; [21]
  Microsomal protein: 12.20 mg/g liver
[8]; [23]
  Microsomal protein: 18.80 mg/g liver
[9]; [13]
  decrease in the level of cytochrome b5: 21%
[9]; [14]
  Cytochrome b5: 0.15 nmole/mg protein
[9]; [15]
  Cytochrome b5: 0.16 nmole/mg protein
[9]; [16]
  Cytochrome b5: 0.20 nmole/mg protein
[9]; [17]
  Cytochrome b5: 0.19 nmole/mg protein
[9]; [18]
  change in cytochrome b5: No significant change
[9]; adult male rats, all the three doses (1, 2 and 4 mg/kg i.p., 3 days)
  change in cytochrome b5: No significant change
[9]; [19]
  Cytochrome b5: 0.25 nmole/mg protein
[9]; [20]
  Cytochrome b5: 0.29 nmole/mg protein
[9]; [21]
  Cytochrome b5: 0.28 nmole/mg protein
[9]; [22]
  decrease in cytochrome b5: 51%
[9]; [23]
  Cytochrome b5: 0.20 nmole/mg protein
[10]; [24]
  SGPT: 50.0 u/l
[10]; female rats, 4 mg/kg i.p.
  Increased activity of alanine aminotransferase: 24%
[10]; [25]
  SGPT: 47.3 u/l
[10]; [26]
  SGPT: 50.0 u/l
[10]; male rats, 2 mg/kg i.p.
  Increased activity of alanine aminotransferase: 12%
[10]; [27]
  SGPT: 53.6 u/l
[10]; male rats, 4 mg/kg i.p.
  Increased activity of alanine aminotransferase: 20%
[11]
  activity of mixed function oxidases: inhibited
[12]
  effect on red cell ChE: no cumulative effect
